Experimental data as given in the NIST ThermoML archive (doi:10.1021/acs.jced.5b00367).
Several values for one entry are separate records, joined by “and”; a condition that tells them apart may be missing. Equal values may be shown once.

Assay: wn = mass fraction of the nth substance listed
Conditions: 101 kPa, Liquid, Alternating current cell with electrodes, w1 = 0.01

CCCCCCCCCCCC[N+](CC)(CC)CCCCCCCCCCCC.[Br-] [didodecyldiethylammonium bromide] + O
Conditions	electrical conductivity
279.25 K	0.00329 S/m
279.35 K	0.00328 S/m
279.45 K	0.00328 S/m
279.55 K	0.00328 S/m
279.65 K	0.00329 S/m
279.75 K	0.00331 S/m and 0.00332 S/m
279.85 K	0.00335 S/m
279.95 K	0.00338 S/m and 0.00343 S/m
280.15 K	0.00345 S/m
280.25 K	0.00348 S/m
280.35 K	0.00355 S/m
280.45 K	0.00357 S/m
280.55 K	0.00359 S/m
280.65 K	0.0036 S/m
280.75 K	0.00364 S/m
280.85 K	0.0037 S/m and 0.00371 S/m
280.95 K	0.00378 S/m
281.05 K	0.00381 S/m
281.15 K	0.00381 S/m
281.25 K	0.00371 S/m
281.35 K	0.00377 S/m
281.45 K	0.00374 S/m
281.55 K	0.00378 S/m
281.65 K	0.00378 S/m
281.85 K	0.00378 S/m
281.95 K	0.00374 S/m
282.05 K	0.00366 S/m
282.25 K	0.00373 S/m
282.45 K	0.00366 S/m
282.65 K	0.00365 S/m
282.75 K	0.00364 S/m
282.85 K	0.00356 S/m
283.05 K	0.00356 S/m
283.15 K	0.0036 S/m
283.35 K	0.0034 S/m
283.45 K	0.0036 S/m
283.55 K	0.00354 S/m
283.75 K	0.0035 S/m
283.85 K	0.00351 S/m
283.95 K	0.00346 S/m
284.05 K	0.0035 S/m
284.25 K	0.00354 S/m
284.35 K	0.00354 S/m
284.55 K	0.0034 S/m
284.65 K	0.00355 S/m
284.75 K	0.0035 S/m
284.85 K	0.00345 S/m
284.95 K	0.00352 S/m
285.05 K	0.00342 S/m
285.15 K	0.00344 S/m
285.25 K	0.0035 S/m
285.35 K	0.00344 S/m
285.45 K	0.00344 S/m
285.55 K	0.00342 S/m
285.65 K	0.00343 S/m
285.75 K	0.0034 S/m
285.85 K	0.00342 S/m
285.95 K	0.00343 S/m
286.05 K	0.00348 S/m
286.15 K	0.0034 S/m
286.25 K	0.00342 S/m
286.35 K	0.00341 S/m
286.45 K	0.00343 S/m
286.55 K	0.00339 S/m
286.65 K	0.0034 S/m
286.75 K	0.00347 S/m
286.95 K	0.00347 S/m
287.05 K	0.00347 S/m
287.15 K	0.00344 S/m
287.25 K	0.00341 S/m
287.35 K	0.00345 S/m
287.45 K	0.00347 S/m
287.55 K	0.00345 S/m
287.65 K	0.00341 S/m
287.75 K	0.00342 S/m
287.85 K	0.00343 S/m
287.95 K	0.00348 S/m
288.05 K	0.00344 S/m
288.15 K	0.00345 S/m
288.25 K	0.00342 S/m
288.45 K	0.0035 S/m
288.55 K	0.00357 S/m
288.65 K	0.00345 S/m
288.75 K	0.0035 S/m
288.85 K	0.00345 S/m
288.95 K	0.00346 S/m
289.05 K	0.00344 S/m
289.15 K	0.00349 S/m
289.25 K	0.00346 S/m
289.35 K	0.00352 S/m
289.45 K	0.00346 S/m
289.55 K	0.00347 S/m
289.65 K	0.00352 S/m
289.75 K	0.00352 S/m
289.85 K	0.00352 S/m
289.95 K	0.00351 S/m
290.05 K	0.00357 S/m
290.15 K	0.00348 S/m
290.25 K	0.0035 S/m
290.35 K	0.00347 S/m
290.55 K	0.00355 S/m
290.65 K	0.00364 S/m
290.75 K	0.00356 S/m
290.85 K	0.00359 S/m
290.95 K	0.0036 S/m
291.05 K	0.00358 S/m
291.15 K	0.00361 S/m
291.25 K	0.00357 S/m
291.35 K	0.00362 S/m
291.45 K	0.0036 S/m
291.55 K	0.00366 S/m
291.65 K	0.00359 S/m
291.75 K	0.0036 S/m
291.85 K	0.00363 S/m
291.95 K	0.00362 S/m
292.05 K	0.00364 S/m
292.15 K	0.00366 S/m
292.25 K	0.00366 S/m
292.35 K	0.00367 S/m
292.45 K	0.00362 S/m
292.55 K	0.00374 S/m
292.65 K	0.00369 S/m
292.75 K	0.00367 S/m
292.85 K	0.00372 S/m
292.95 K	0.00369 S/m
293.05 K	0.00378 S/m
293.15 K	0.00377 S/m
293.25 K	0.00376 S/m
293.35 K	0.00376 S/m
293.45 K	0.0037 S/m
293.55 K	0.00375 S/m
293.65 K	0.00376 S/m
293.75 K	0.00372 S/m
293.85 K	0.00383 S/m
293.95 K	0.00378 S/m
294.05 K	0.0038 S/m
294.15 K	0.00381 S/m
294.25 K	0.0038 S/m
294.35 K	0.00381 S/m
294.45 K	0.00383 S/m
294.55 K	0.00382 S/m
294.65 K	0.00384 S/m
294.75 K	0.00385 S/m
294.85 K	0.00386 S/m
294.95 K	0.00387 S/m
295.05 K	0.00389 S/m
295.15 K	0.00389 S/m
295.25 K	0.00386 S/m
295.35 K	0.00396 S/m
295.45 K	0.00395 S/m
295.55 K	0.00387 S/m
295.65 K	0.00396 S/m
296.45 K	0.00389 S/m
296.55 K	0.00397 S/m
296.75 K	0.00394 S/m
297.45 K	0.00396 S/m
297.85 K	0.00401 S/m
298.15 K	0.00402 S/m
298.55 K	0.00399 S/m
298.75 K	0.00405 S/m
298.95 K	0.00402 S/m
299.15 K	0.00407 S/m
299.55 K	0.00409 S/m
299.75 K	0.00406 S/m
300.05 K	0.00407 S/m
300.45 K	0.00419 S/m
300.75 K	0.00428 S/m
300.95 K	0.00431 S/m
301.55 K	0.00453 S/m
301.85 K	0.00472 S/m
302.15 K	0.0048 S/m
302.35 K	0.005 S/m
302.75 K	0.00518 S/m
303.05 K	0.00543 S/m
303.45 K	0.00568 S/m
303.75 K	0.00609 S/m
304.55 K	0.00686 S/m
304.85 K	0.00713 S/m
305.15 K	0.00765 S/m
305.55 K	0.00812 S/m
305.85 K	0.00833 S/m
306.05 K	0.00891 S/m
306.35 K	0.00946 S/m
307.35 K	0.0136 S/m
307.55 K	0.0157 S/m
307.95 K	0.016 S/m
308.25 K	0.0159 S/m
308.35 K	0.016 S/m
308.75 K	0.0162 S/m
308.95 K	0.0165 S/m
309.25 K	0.0167 S/m
309.75 K	0.0169 S/m
310.05 K	0.0171 S/m
310.15 K	0.0172 S/m
310.45 K	0.0175 S/m
310.65 K	0.0177 S/m
310.85 K	0.0179 S/m
311.05 K	0.018 S/m
311.25 K	0.0181 S/m
311.45 K	0.0183 S/m
311.65 K	0.0184 S/m
311.75 K	0.0185 S/m
311.85 K	0.0187 S/m
311.95 K	0.0188 S/m
312.15 K	0.0189 S/m
312.35 K	0.0192 S/m
312.55 K	0.0194 S/m
312.65 K	0.0194 S/m
312.85 K	0.0196 S/m
312.95 K	0.0196 S/m
313.35 K	0.0201 S/m
313.65 K	0.0204 S/m
313.85 K	0.0205 S/m
313.95 K	0.0207 S/m
314.05 K	0.0208 S/m
314.15 K	0.0209 S/m
314.35 K	0.021 S/m
314.45 K	0.0212 S/m
314.65 K	0.0213 S/m
314.75 K	0.0214 S/m
314.85 K	0.0216 S/m
314.95 K	0.0217 S/m
315.05 K	0.0218 S/m
315.15 K	0.0219 S/m
315.25 K	0.022 S/m
315.35 K	0.0222 S/m
